Test results reported in ChEMBL document CHEMBL4507261, “Data for DCP probe A-192621” (2021).

Assays:
[1] = system: Hepatocyte growth factor receptor (Homo sapiens), P08581 [M1250T]; details: Compound concentration 1000.0 nM
[2] = target: Activin receptor type-1B (Homo sapiens) (UniProt P36896); details: Compound concentration 1000.0 nM
[3] = target: Sodium-dependent noradrenaline transporter (Homo sapiens) (UniProt P23975); test: norepinephrine transporter (h) Eurofins-Cerep binding assay; details: filed as antagonist, Compound concentration 10.0 uM
Sodium-dependent noradrenaline transporter (Homo sapiens), sequence (P23975 whole entry): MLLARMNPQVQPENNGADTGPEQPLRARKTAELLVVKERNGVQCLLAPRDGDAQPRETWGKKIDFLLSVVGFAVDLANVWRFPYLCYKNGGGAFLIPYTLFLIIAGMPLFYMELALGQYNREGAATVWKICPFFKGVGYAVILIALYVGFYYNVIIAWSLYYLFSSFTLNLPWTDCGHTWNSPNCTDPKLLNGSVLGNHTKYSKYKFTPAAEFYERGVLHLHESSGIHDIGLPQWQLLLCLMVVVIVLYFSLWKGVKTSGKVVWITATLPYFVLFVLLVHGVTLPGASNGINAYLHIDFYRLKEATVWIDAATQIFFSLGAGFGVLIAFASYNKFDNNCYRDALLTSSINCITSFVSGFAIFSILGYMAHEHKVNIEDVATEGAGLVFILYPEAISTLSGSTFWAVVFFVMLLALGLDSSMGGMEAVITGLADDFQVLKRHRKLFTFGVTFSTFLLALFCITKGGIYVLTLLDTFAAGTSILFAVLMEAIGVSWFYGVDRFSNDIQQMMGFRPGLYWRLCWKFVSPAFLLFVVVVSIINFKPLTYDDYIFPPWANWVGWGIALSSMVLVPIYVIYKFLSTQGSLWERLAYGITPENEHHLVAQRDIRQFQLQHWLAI

[4] = target: Receptor tyrosine-protein kinase erbB-2 (Homo sapiens) (UniProt P04626); details: Compound concentration 1000.0 nM
[5] = target: Cyclin-dependent kinase-like 2 (Homo sapiens) (UniProt Q92772); details: Compound concentration 1000.0 nM
Cyclin-dependent kinase-like 2 (Homo sapiens), sequence (Q92772 whole entry): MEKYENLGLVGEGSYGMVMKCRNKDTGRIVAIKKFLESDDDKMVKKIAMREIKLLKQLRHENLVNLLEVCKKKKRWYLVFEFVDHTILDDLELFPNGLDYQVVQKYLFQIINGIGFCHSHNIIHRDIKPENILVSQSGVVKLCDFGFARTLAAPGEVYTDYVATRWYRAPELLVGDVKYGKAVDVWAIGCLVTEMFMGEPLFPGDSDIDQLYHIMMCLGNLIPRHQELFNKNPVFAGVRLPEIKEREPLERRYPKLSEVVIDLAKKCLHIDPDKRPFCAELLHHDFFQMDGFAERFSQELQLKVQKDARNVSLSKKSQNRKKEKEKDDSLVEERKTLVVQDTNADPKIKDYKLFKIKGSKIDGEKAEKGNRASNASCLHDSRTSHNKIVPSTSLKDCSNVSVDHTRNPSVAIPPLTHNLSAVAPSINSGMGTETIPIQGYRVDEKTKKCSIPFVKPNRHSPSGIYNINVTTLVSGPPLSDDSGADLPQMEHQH

[6] = target: TGF-beta receptor type-1 (Homo sapiens) (UniProt P36897); details: Compound concentration 1000.0 nM
TGF-beta receptor type-1 (Homo sapiens), sequence (P36897 whole entry): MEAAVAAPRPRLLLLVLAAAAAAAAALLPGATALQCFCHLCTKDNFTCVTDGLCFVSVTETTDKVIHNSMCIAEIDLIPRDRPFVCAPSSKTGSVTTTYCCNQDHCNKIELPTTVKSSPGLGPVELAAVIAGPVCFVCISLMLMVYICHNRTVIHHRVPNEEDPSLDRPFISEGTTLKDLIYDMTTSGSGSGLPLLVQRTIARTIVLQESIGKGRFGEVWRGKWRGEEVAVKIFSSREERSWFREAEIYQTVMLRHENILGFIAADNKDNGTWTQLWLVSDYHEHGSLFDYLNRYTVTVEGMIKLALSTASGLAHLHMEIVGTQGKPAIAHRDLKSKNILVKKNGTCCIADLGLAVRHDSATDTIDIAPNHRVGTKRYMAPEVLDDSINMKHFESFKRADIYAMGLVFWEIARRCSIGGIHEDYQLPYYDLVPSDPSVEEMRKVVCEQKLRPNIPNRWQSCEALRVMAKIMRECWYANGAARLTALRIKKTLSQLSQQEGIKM

[7] = target: Ephrin type-B receptor 3 (Homo sapiens) (UniProt P54753); details: Compound concentration 1000.0 nM
[8] = target: T1, Alpha-2B adrenergic receptor (Homo sapiens) (UniProt P18089); test: Alpha2B (h) Eurofins-Cerep binding assay; design: ligand concentration 2.5 nM; details: filed as antagonist, Compound concentration 10.0 uM
T1 sequence (whole entry): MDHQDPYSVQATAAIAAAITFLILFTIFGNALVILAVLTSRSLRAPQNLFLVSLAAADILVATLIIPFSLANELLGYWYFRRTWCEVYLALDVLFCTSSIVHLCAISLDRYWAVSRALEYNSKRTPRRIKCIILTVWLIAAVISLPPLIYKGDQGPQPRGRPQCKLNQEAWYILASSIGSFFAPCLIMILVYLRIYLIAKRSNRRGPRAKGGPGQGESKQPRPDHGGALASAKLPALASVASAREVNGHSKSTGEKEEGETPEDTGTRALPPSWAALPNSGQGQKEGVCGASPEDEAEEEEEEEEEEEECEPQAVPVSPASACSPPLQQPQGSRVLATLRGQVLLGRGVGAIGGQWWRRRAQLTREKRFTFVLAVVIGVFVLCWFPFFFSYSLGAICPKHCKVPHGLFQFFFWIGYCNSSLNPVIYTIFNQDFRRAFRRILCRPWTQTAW

[9] = target: Calcium-dependent protein kinase 1 (Plasmodium falciparum) (UniProt P62344); details: Compound concentration 1000.0 nM
Calcium-dependent protein kinase 1 (Plasmodium falciparum), sequence (P62344 2-524 limits assumed): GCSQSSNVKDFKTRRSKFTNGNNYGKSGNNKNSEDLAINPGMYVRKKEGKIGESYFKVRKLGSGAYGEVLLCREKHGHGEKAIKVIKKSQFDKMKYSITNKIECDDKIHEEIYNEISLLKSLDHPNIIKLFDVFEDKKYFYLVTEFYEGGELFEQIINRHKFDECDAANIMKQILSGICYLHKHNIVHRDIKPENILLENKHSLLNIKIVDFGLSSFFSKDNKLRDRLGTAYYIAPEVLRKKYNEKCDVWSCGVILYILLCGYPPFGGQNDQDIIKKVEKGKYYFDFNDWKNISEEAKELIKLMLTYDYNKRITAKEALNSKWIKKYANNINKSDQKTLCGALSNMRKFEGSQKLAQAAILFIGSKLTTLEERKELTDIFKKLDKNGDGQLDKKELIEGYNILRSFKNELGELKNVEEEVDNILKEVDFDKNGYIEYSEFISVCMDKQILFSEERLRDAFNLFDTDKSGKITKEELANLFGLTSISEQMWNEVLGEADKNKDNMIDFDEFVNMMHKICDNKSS

[10] = target: Phosphatidylinositol 4,5-bisphosphate 3-kinase catalytic subunit alpha isoform (Homo sapiens) (UniProt P42336); details: Compound concentration 1000.0 nM
Phosphatidylinositol 4,5-bisphosphate 3-kinase catalytic subunit alpha isoform (Homo sapiens), sequence (P42336 whole entry, canonical isoform): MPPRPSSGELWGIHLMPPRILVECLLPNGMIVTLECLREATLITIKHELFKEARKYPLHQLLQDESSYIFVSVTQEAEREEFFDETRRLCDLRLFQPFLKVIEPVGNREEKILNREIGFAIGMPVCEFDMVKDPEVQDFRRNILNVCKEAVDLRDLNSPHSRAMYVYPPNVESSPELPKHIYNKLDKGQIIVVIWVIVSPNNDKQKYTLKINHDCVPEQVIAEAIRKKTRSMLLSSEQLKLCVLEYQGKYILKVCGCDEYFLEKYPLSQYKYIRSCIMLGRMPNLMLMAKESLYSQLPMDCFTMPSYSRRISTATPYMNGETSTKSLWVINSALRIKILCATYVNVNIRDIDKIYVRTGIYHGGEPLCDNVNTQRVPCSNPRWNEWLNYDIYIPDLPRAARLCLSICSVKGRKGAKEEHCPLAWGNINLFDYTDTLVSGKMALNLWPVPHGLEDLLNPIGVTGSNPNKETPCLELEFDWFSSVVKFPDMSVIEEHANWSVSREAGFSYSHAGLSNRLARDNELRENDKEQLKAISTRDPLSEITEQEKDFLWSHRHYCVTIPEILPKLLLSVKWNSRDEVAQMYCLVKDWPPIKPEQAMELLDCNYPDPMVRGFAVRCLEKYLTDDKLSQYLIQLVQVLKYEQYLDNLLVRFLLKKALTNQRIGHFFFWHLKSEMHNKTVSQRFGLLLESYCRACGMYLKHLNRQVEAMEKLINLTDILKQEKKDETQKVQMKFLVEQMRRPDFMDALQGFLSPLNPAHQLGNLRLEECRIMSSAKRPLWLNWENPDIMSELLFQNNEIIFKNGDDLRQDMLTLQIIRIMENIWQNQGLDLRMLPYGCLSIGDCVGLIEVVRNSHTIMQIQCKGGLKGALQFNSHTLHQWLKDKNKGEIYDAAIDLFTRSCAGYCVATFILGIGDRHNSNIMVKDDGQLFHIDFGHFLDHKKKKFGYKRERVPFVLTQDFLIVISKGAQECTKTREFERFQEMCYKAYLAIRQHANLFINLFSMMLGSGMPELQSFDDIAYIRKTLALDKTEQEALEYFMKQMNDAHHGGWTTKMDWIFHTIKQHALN

[11] = target: Mitogen-activated protein kinase kinase kinase 2 (Homo sapiens) (UniProt Q9Y2U5); details: Compound concentration 1000.0 nM
[12] = target: Serine/threonine-protein kinase 3 (Homo sapiens) (UniProt Q13188); details: Compound concentration 1000.0 nM
[13] = system: Epidermal growth factor receptor (Homo sapiens), P00533 [UNDEFINED MUTATION]; details: Compound concentration 1000.0 nM
[14] = target: Eukaryotic translation initiation factor 2-alpha kinase 1 (Homo sapiens) (UniProt Q9BQI3); details: Compound concentration 1000.0 nM
[15] = target: Serine/threonine-protein kinase 4 (Homo sapiens) (UniProt Q13043); details: Compound concentration 1000.0 nM
[16] = target: Cyclin-dependent kinase 3 (Homo sapiens) (UniProt Q00526); details: Compound concentration 1000.0 nM
Cyclin-dependent kinase 3 (Homo sapiens), sequence (Q00526 whole entry, looked up): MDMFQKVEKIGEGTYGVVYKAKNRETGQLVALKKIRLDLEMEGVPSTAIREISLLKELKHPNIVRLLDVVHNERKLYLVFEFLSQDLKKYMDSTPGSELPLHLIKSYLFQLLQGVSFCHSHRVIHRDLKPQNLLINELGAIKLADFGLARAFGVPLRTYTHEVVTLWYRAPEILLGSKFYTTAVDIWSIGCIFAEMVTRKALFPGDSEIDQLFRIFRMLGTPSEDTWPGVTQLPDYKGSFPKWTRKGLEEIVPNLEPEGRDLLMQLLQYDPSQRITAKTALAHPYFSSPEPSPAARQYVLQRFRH

[17] = target: Rhodopsin kinase GRK1 (Homo sapiens) (UniProt Q15835); details: Compound concentration 1000.0 nM
[18] = target: Proto-oncogene tyrosine-protein kinase receptor Ret (Homo sapiens) (UniProt P07949); details: Compound concentration 1000.0 nM
[19] = target: Substance-P receptor (Homo sapiens) (UniProt P25103); test: NK1 (h) Eurofins-Cerep binding assay; design: ligand concentration 0.05 nM; details: filed as agonist, Compound concentration 10.0 uM
[20] = target: Wee1-like protein kinase 2 (Homo sapiens) (UniProt P0C1S8); details: Compound concentration 1000.0 nM
[21] = target: Dual specificity mitogen-activated protein kinase kinase 4 (Homo sapiens) (UniProt P45985); details: Compound concentration 1000.0 nM
[22] = target: Serine/threonine-protein kinase LATS1 (Homo sapiens) (UniProt O95835); details: Compound concentration 1000.0 nM
[23] = target: Serine/threonine-protein kinase Nek6 (Homo sapiens) (UniProt Q9HC98); details: Compound concentration 1000.0 nM
[24] = system: ALK tyrosine kinase receptor (Homo sapiens), Q9UM73 [L1196M]; details: Compound concentration 1000.0 nM
[25] = target: Calcium/calmodulin-dependent protein kinase type 1B (Homo sapiens) (UniProt Q6P2M8); details: Compound concentration 1000.0 nM
[26] = system: Mast/stem cell growth factor receptor Kit (Homo sapiens), P10721 [V559D,T670I]; details: Compound concentration 1000.0 nM
[27] = target: T2, Alpha-1B adrenergic receptor (Homo sapiens) (UniProt P35368); test: Alpha1B (h) Eurofins-Cerep binding assay; details: filed as antagonist, Compound concentration 10.0 uM
T2 sequence (whole entry): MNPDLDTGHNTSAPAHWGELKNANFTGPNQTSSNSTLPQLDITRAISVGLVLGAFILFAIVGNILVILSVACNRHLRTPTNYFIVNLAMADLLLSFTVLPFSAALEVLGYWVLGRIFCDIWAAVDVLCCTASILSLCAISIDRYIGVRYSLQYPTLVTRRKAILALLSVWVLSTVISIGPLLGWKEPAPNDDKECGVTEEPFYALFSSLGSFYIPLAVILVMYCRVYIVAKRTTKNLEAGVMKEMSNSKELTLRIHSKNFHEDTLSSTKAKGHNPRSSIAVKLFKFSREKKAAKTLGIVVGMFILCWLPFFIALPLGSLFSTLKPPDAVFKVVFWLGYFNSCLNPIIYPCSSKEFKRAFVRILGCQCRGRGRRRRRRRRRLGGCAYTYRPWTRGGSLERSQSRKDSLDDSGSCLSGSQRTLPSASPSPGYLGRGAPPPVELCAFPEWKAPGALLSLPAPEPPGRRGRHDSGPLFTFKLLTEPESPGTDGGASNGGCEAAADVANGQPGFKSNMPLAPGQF

[28] = target: STE20-like serine/threonine-protein kinase (Homo sapiens) (UniProt Q9H2G2); details: Compound concentration 1000.0 nM
[29] = target: Calcium/calmodulin-dependent protein kinase kinase 1 (Homo sapiens) (UniProt Q8N5S9); details: Compound concentration 1000.0 nM
Calcium/calmodulin-dependent protein kinase kinase 1 (Homo sapiens), sequence (Q8N5S9 whole entry, looked up): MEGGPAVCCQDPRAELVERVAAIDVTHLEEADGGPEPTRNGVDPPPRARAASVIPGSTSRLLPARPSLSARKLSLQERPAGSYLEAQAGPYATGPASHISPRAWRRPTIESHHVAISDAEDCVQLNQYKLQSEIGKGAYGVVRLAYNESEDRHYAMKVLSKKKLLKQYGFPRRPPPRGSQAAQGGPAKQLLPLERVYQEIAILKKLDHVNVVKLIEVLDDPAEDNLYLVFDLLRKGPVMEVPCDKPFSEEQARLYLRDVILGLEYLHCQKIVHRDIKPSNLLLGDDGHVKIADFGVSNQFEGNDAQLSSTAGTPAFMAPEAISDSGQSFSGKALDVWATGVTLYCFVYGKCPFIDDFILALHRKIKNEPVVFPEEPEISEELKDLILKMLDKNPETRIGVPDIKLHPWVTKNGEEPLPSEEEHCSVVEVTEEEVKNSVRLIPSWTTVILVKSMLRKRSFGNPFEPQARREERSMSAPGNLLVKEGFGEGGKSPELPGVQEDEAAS

[30] = target: Ephrin type-A receptor 8 (Homo sapiens) (UniProt P29322); details: Compound concentration 1000.0 nM
Ephrin type-A receptor 8 (Homo sapiens), sequence (P29322 whole entry): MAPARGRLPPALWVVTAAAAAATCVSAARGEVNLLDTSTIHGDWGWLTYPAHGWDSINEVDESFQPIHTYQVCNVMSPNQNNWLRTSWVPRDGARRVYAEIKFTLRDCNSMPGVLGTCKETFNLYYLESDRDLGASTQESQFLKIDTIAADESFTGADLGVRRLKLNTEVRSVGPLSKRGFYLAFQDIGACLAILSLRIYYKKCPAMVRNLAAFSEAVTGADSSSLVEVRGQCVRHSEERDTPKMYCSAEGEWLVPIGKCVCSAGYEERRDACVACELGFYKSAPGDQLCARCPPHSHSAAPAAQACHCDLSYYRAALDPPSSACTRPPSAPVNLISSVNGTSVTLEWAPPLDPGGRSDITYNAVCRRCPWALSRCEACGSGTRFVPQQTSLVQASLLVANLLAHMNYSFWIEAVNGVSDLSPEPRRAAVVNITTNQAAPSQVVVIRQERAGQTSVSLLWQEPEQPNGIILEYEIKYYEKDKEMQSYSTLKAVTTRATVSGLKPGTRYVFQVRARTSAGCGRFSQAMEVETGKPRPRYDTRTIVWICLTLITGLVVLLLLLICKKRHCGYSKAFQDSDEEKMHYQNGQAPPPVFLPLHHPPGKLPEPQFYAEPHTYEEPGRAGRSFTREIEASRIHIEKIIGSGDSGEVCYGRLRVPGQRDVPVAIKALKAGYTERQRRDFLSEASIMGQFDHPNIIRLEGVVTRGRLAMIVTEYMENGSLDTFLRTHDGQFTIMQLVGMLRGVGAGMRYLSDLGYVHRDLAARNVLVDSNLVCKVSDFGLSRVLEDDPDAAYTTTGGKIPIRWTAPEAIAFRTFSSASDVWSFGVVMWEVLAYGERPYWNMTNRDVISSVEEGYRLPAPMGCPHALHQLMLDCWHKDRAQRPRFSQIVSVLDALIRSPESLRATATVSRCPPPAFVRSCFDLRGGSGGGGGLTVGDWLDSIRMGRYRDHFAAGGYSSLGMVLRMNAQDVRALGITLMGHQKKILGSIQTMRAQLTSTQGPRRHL

[31] = target: Serine/threonine-protein kinase ULK2 (Homo sapiens) (UniProt Q8IYT8); details: Compound concentration 1000.0 nM
[32] = target: Serine/threonine-protein kinase 36 (Homo sapiens) (UniProt Q9NRP7); details: Compound concentration 1000.0 nM

Compound	residual activity [1] [%]	residual activity [2] [%]	% Inhibition of Control Specific Binding (Mean n=2) [3] [%]	residual activity [4] [%]	residual activity [5] [%]	residual activity [6] [%]	residual activity [7] [%]	% Inhibition of Control Specific Binding (Mean n=2) [8] [%]	residual activity [9] [%]	residual activity [10] [%]	residual activity [11] [%]	residual activity [12] [%]	residual activity [13] [%]	residual activity [14] [%]	residual activity [15] [%]	residual activity [16] [%]	residual activity [17] [%]	residual activity [18] [%]	% Inhibition of Control Specific Binding (Mean n=2) [19] [%]	residual activity [20] [%]	further results
CCCOc1ccc([C@H]2[C@H](C(=O)O)[C@@H](c3ccc4c(c3)OCO4)CN2CC(=O)Nc2c(CC)cccc2CC)cc1 [A-192621]	71	99	16.2	79	84	64	97	7.4	88	80	82	96	81	84	99	95	68	86	36.7	85	residual activity [21]: 80%; residual activity [22]: 77%; residual activity [23]: 96%; residual activity [24]: 91%; residual activity [25]: 77%; residual activity [26]: 87%; % Inhibition of Control Specific Binding (Mean n=2) [27]: 3.2%; residual activity [28]: 100%; residual activity [29]: 86%; residual activity [30]: 98%; residual activity [31]: 55%; residual activity [32]: 98%
CCCOc1ccc([C@@H]2[C@@H](C(=O)O)[C@H](c3ccc4c(c3)OCO4)CN2CC(=O)Nc2c(CC)cccc2CC)cc1 [A-1806262]	81	90	1.6	80	96	64	96	1.5	64	84	100	100	58	86	95	100	100	97	32.2	87	residual activity [21]: 83%; residual activity [22]: 57%; residual activity [23]: 92%; residual activity [24]: 78%; residual activity [25]: 100%; residual activity [26]: 100%; % Inhibition of Control Specific Binding (Mean n=2) [27]: 3.1%; residual activity [28]: 100%; residual activity [29]: 81%; residual activity [30]: 97%; residual activity [31]: 76%; residual activity [32]: 88%
